The conditions of data set [1]: pKa of the conjugate acid of the leaving group; no measurement described; cited from earlier work.
Data set [2] is described as follows: NMR CO release experiments for formyl compounds. Format: physicochemical. As to conditions: deuterated PBS or 20% DMSO-d6 in deuterated PBS; determined indirectly from ratio of formic acid formed. The procedure:
Compounds 1-4 were tested for their CO release by NMR. Each compound was placed in deuterated PBS or 20% DMSO-d6 in deuterated PBS. CO release yield was indirectly determined by calculating the ratio of formic acid formed as a by-product of the competing hydrolysis reaction.

The nature of data set [3]: COP-1 fluorescent probe evaluation of CO release. The format is physicochemical. The procedure: COP-1, a CO probe that is commonly employed in the literature to detect CO was used to evaluate the ability of different oxalyl-based compounds to release CO under aqueous solution at room temperature. Chloride was replaced with various leaving groups having different pKa values to survey the effect of pKa on CO release.
To a solution of the CO probe COP-1 (0.5 μM) in 3% DMSO in PBS, a solution of 1,2-bis(1,1-dioxido-3-oxobenzo[d]isothiazol-2(3H)-yl)ethane-1,2-dione in DMSO was added to form a 100 μM final solution concentration. The resulting mixture was incubated at 37° C., and the fluorescence emission intensity was recorded at different time points from […] with an excitation wavelength of 475 nm.

A further data set concerns deoxy-myoglobin. The data set is described as follows: Two-compartment CO-myoglobin (Mb-CO) assay. The following applies: DMSO/PBS, 37° C., 25 minutes. The format is physicochemical.
The nature of data set [4]: Quantitative CO analysis by GC with thermal conductivity detector. The format is physicochemical. The following applies: 37° C.; for CO release yield: 4 to 1 acetonitrile: water, 1 h (FIG. 10); for CO yield, effect of pH: pH 1, pH 3 and pH 7.4 buffers in ACN:H2O (4:1), 1 hour (FIG. 11, 12). The procedure:
An Agilent […] GC System equipped with a thermal conductivity detector was used to detect and quantify CO release yield of the CO prodrugs. Using a gas tight syringe, specific volumes of the headspace of 20-mL headspace vials were sampled and transferred to the injector port maintained at 125° C. Helium was used as the carrier gas with a flow rate of 30 mL/min. Gaseous components of the headspace were separated by passing through a packed column with 60/80 Carboxen-1000 matrix support, […] (4.6 m)×1⁄8 in.×2.1 mm (Supelco). The column was heated 35° C. for 5 min then 225° C. at 20° C./min while the detector was held at 125° C.

The nature of data set [5]: LC-MS determination of oxalic acid (CO vs non-CO producing pathways). The format is physicochemical. As to conditions: from a 200-μM sample. The procedure:
LC-MS Studies: CO Production Vs Non-CO Producing Pathways The LCMS analysis was performed on an Agilent 1200 HPLC and 3200 API triple quadrupole mass spectrometer with electrospray ionization source in a negative mode. Selected ion mode was used for the detection of ions at m/z 182 for saccharin and m/z 89 for oxalic acid. A 5 uL of sample solution (compound 5) was directly delivered to the mass spectrometer ionization source with an Agilent autosampler and HPLC by mixing with 1% ACN in water mobile phase at 200 uL/min flow rate. No column was used. Three minutes were recorded and the peak area was integrated and the peak are ratio of PA (Oxalic acid)/PA(Saccharin) vs Concentration ratio (C(Saccharine)/C(Oxalic acid) was plotted as standard curve. The linear regression equation was generated for the calculation of the ratio of unknowns.

A short description of data set [6]: HPLC kinetics of decomposition. The following applies: 40% acetonitrile in PBS; 60% PBS (40% acetonitrile), 37° C. Format: physicochemical. Here is the method:
Compound 5 was tested for its rate of decomposition under physiological conditions. The followed samples were injected into the HPLC instrument i) saccharin (200 μM) dissolved in 40% acetonitrile in PBS; and b) incubated solution of the CO-releasing molecule Compound 5 dissolved in 40% acetonitrile in PBS at 37° C. at different time points. A 200 μL aliquot of incubated sample was placed inside a 0.5 mL vial followed by dilution with 200 μL of acetonitrile. The study was performed using the Shimadzu Prominence UFLC with a reversed-phase analytical column (Waters C18 3.5 μM, 4.6×100 mm) at 25° C. The flow rate was set at 1 mL/min. Gradient elution using acetonitrile and deionized water with 0.05% TFA was used to elute out the components of the sample. Elution conditions: 0-7 min 50% to 70% acetonitrile; injection volume 10 μL; detection wavelength of 254 and 280 nm. Experiments were done in triplicate.

Data set [7] concerns LPS induced TNF-α production in RAW264.7 cells. Put plainly: Anti-inflammatory assay: TNF-α ELISA in LPS-stimulated RAW264.7 cell culture. Format: cell-based. As to conditions: total 5 hour pretreatment (Compound 5 medium changed every 1 hour 5 times; Compound 7 single addition). The procedure: The effect of the compounds of the present invention on CO-associated anti-inflammation activity was studied. Pro-inflammatory cytokine TNF-α in RAW264.7 cell culture upon stimulation by lipid polysaccharide (LPS) from E. coli was tested with ELSA assay. […] Due to the fast release kinetics of Compound 5, a repeated dosage protocol was used. Indicated concentration of Compound 5 was added to the culture medium right before addition to the cell and the fresh-made drug loaded culture medium was changed every 1 hour 5 times. Compound 7 has a longer half-life and therefore a single addition of the drug can fulfill the anti-inflammation effect. A Total 5 hour pretreatment was used throughout the experiments and the reported CO prodrug shown below (Ji, X., et al. Angew Chem Int Ed Engl 2016, 55 (51), 15846-15851) was used as the positive control: […]
A general note: An ELISA detects its analyte on a solid surface through an enzyme-linked reagent.

In a further data set the test system is HeLa cells. Put plainly: CCK-8 cytotoxicity assay. The format is cell-based. As to conditions: 0-100 μM, 1% DMSO in DMEM, 24 hours. The procedure:
For the CCK-8 assay, HeLa cells were cultured in DMEM (Dulbecco's Modified Eagle's Medium) supplements with 10% fetal bovine serum (MidSci; SO1520HI) and 1% penicillin-streptomycin (Sigma-Aldrich; P4333) at 37° C. with 5% C02. Fresh medium was replenished every other day. The cells were treated with the compounds (0-100 μM) using 1% DMSO in DMEM for 24 hours.
(In general: Tetrazolium dyes change colour on reduction, which living cells bring about.)

The nature of data set [8]: RP-HPLC stability study (solid and acetonitrile solution). As to conditions: exposed to ambient light and temperature. Format: physicochemical. From the text: These prodrugs are also stable as a solution of acetonitrile stored at room temperature for at least seven days.
Data set [9] in a line: Saturation adsorption assay on activated charcoal. Format: physicochemical. As to conditions: in 10 mg activated charcoal, ACN, 25° C. Here is the method:
A saturation adsorption assay was used to determine the adsorption capacity of the Compound 5 on activated charcoal. Compound 5 was dissolved in anhydrous ACN to form calibration samples with a concentration range from 0.019 to 0.3 mg/ml. The absorbance at 280 nm was measured with a UV-Vis spectrometer and plotted against the concentration to give the calibration curve (FIG. 21).
At room temperature (25° C.), 1-6 mg Compound 5 was mixed with 10 mg of activated charcoal and then 0.5 ml ACN was added. The mixture was shaken for 1 h followed by centrifuging at 12000×g for 5 min and the supernatant was diluted by 50 folds with ACN and measured with UV/Vis spectrometer at 280 nm to get the Compound 5 concentration in the supernatant. Adsorbed mass of Compound 5 was calculated by Formula I: Adsorbed mass=(Initial mass)−0.5*(supernatant concentration) (Formula I) Adsorbed mass=Y0+(Plateau-Y0)*(1−e^kX) (Formula II)

Data set [10] can be described thus: CO release profile of the activated charcoal formulation (GC headspace). Format: physicochemical. The following applies: 100 mg method A formulation, 3 mL PBS, 37° C. Here is the method:
Activated charcoal comprising Compound 5 (100 mg) that was formulated by method A was put into a GC-headspace vial. PBS (3 mL) preheated to 37° C. was added and the vial was sealed and incubated at 37° C. At different time points, 250 μL of the headspace gas was withdrawn and injected to a gas chromatograph (Agilent 7820) equipped with a RESTEK packed molecular sieve column and a TCD detector. The CO release kinetic and yield were plotted (FIG. 23) based on the CO peak area and calibration curve.

On to `O=C(Oc1c(Cl)cc(Cl)cc1Cl)C(=O)Oc1c(Cl)cc(Cl)cc1Cl`, for which, in data set [1], the pKa is reported as 6.23.

Regarding `O=C(C(=O)N1C(=O)c2ccccc2C1=O)N1C(=O)c2ccccc2C1=O`, the pKa in [1] is on record as 8.3.

With `O=C(C(=O)n1ccnc1)n1ccnc1`, the pKa in data set [1] is listed as 14.5.

For `O=CN1C(=O)c2ccccc2S1(=O)=O` [Compound 1, 3-Oxobenzo[d]isothiazole-2(3H)-carbaldehyde 1,1-dioxide], in data set [2], the “CO Release Yield (%)” value turned out to be 20%.

For the molecule `Cc1nn(C=O)c(=S)s1` [Compound 2, 5-Methyl-2-thioxo-1,3,4-thiadiazole-3(2H)-carbaldehyde], in [3] (after 10 minutes of incubation (FIG. 4)), the “increase in fluorescence with the COP-1 probe” value turned out to be 2.3 fold. Moreover, the “formation of CO-myoglobin (UV-Vis spectral signature)” value (shortened to “formation of CO-myoglobin”) with deoxy-myoglobin was “showed the characteristic spectral signature for the formation of CO-myoglobin”. In addition, in [2], the “CO Release Yield (%)” value came out at 33%.

For the molecule `O=Cn1ccccc1=O` [Compound 3, 2-Oxopyridine-1(2H)-carbaldehyde], the “CO Release Yield (%)” value in data set [2] turned out to be 20%.

Regarding `C[N+](C)=c1ccn(C=O)cc1.[Br-]` [Compound 4, N-(1-Formylpyridin-4(1H)-ylidene)-N-methylmethanaminium Bromide], the “CO Release Yield (%)” value in data set [2] was 34%.

Regarding `O=C(C(=O)N1C(=O)c2ccccc2S1(=O)=O)N1C(=O)c2ccccc2S1(=O)=O` [Compound 5, 1,2-Bis(1,1-dioxido-3-oxobenzo[d]isothiazol-2(3H)-yl)ethane-1,2-dione], the “increase in fluorescence intensity with the COP-1 probe” value in data set [3] (after 3 h (FIG. 5), 100 μM compound, 0.5 μM COP-1, 3% DMSO in PBS, 37° C.) is 4 fold. The “formation of CO-myoglobin” value with deoxy-myoglobin is on record as “showed the characteristic spectral signature for the formation of CO-myoglobin”. In [4], the CO release yield is listed as 76%±6 and the “CO yield, effect of pH” value was 60% to 30%. Besides, in data set [5], the “CO production estimated from oxalic acid” value is reported as “about 75%” and the oxalic acid produced turned out to be 47 µM. Besides, in data set [6], the half-life was 1.28 ± 0.03 min. Besides, the “LPS induced TNF-α production” value in data set [7] is recorded as “inhibit LPS induced TNF-α production in a dose-dependent manner”. The “toxicity to HeLa cells (cell survival)” value with HeLa cells is “no toxicity to HeLa cells up to a 100 μM concentration”. The “stable as a solid” value in data set [8] is listed as “at least 24 days”. Further, the “maximum adsorption amount on activated charcoal (plateau)” value in data set [9] is on record as 1.73 mg. In data set [10], the “total CO release yield” value was determined as 81%.

Turning to `CC1=CC(=O)N(C(=O)C(=O)N2C(=O)C=C(C)OS2(=O)=O)S(=O)(=O)O1` [Compound 7, 1,2-Bis(6-methyl-2,2-dioxido-4-oxo-1,2,3-oxathiazin-3(4H)-yl)ethane-1,2-dione], in the data set with deoxy-myoglobin, the “formation of CO-myoglobin” value is “showed the characteristic spectral signature for the formation of CO-myoglobin”. Moreover, in data set [4], the CO release yield is 92%±3 and the “CO yield, effect of pH” value is on record as “around 90%”. The molecule also displayed a half-life in data set [6] of 9.5 ± 0.1 min. Moreover, the “LPS induced TNF-α production” value in data set [7] was “inhibit LPS induced TNF-α production in a dose-dependent manner”.

As to `CC(C)(C)OC(=O)C(=O)N1C(=O)c2ccccc2S1(=O)=O` [Compound 8, tert-Butyl 2-(1,1-Dioxido-3-oxobenzo[d]isothiazol-2(3H)-yl)-2-oxoacetate], the CO release yield entry in data set [4] is on record as “No CO nor CO2 were detected”. For the same molecule, in data set [4] (ACN:H2O (4:1), 1 hour (FIG. 10)), the CO2 yield entry is “No CO nor CO2 were detected”.

For `CS(=O)(=O)N(C(=O)C(=O)N(C(=O)c1ccccc1)S(C)(=O)=O)C(=O)c1ccccc1` [Compound 9, N^1,N^2-Dibenzoyl-N^1,N^2-bis(methylsulfonyl)oxalamide], the CO release yield result in data set [4] is “no CO was detected”.

Regarding `O=C(C(=O)N1C(=O)c2ccccc2S1(=O)=O)N1C(=O)c2ccccc2S1(=O)=O` [drawing 150], the pKa in [1] is 1.6.

As usually defined, the pKa is the pH at which an ionisable group is half protonated. Usually half-life stands for how long it takes for the measured level to halve.

The values are drawn from patent publication US12071415B2, “Carbon monoxide prodrugs for the treatment of medical disorders” (Georgia State University Research Foundation, Inc., priority 2018, dated 2024).
